# Source: patent publication US12245993B2, “Vitamin K2 microcapsule, preparation method thereof and use thereof in manufacture of medicament for preventing or treating cardiovascular and cerebrovascular diseases” (Xiamen Kingdomway Biotech. Co., Ltd., priority 2020, dated 2025)
# Assay: Determination of stability of vitamin K2 microcapsules (light, oxygen, high temperature)
# Format: physicochemical
# Description: (2) Test Method The samples and the reference samples were respectively put into sealed colorless and transparent vials, and placed under the conditions of 4500Lx light intensity irradiation, oxygen filling (25° C.), and stored at 60° C. (incubator) for 15 days, respectively; and they were subjected to sampling on Day 0, Day 5, Day 10, Day 15, and VK2 contents thereof were determined by USP method. The effects of light, oxygen, and temperature conditions on the labeled content (%) of VK2 were investigated.
substance,measurement,setting,value
Vitamin K2 [Reference sample 4],Labeled content of VK2 (%),"60° C. (incubator), Day 0",100.0%
same,Labeled content of VK2 (%),"60° C. (incubator), Day 5",96.2%
same,Labeled content of VK2 (%),"60° C. (incubator), Day 10",94.8%
same,Labeled content of VK2 (%),"60° C. (incubator), Day 15",90.4%
same,Labeled content of VK2 (%),"4500 Lx illumination, Day 0",100.0%
same,Labeled content of VK2 (%),"4500 Lx illumination, Day 5",89.2%
same,Labeled content of VK2 (%),"4500 Lx illumination, Day 10",74.3%
same,Labeled content of VK2 (%),"4500 Lx illumination, Day 15",60.3%
same,Labeled content of VK2 (%),"Oxygen filling (25° C.), Day 0",100.0%
same,Labeled content of VK2 (%),"Oxygen filling (25° C.), Day 5",93.5%
same,Labeled content of VK2 (%),"Oxygen filling (25° C.), Day 10",89.4%
same,Labeled content of VK2 (%),"Oxygen filling (25° C.), Day 15",81.2%
